# Assays:
# [1] = tested on: synaptic and extrasynaptic GABAA receptors; conditions: cited from earlier work
# [2] = Population PK modeling of the relationship between plasma and breast milk concentrations; assay type: in vivo, human
# Protocol: (§1) Healthy volunteers (N=15) aged 18-45 years, >12 weeks postpartum, actively lactating, and pumping or breast feeding ≥3 times per day orally self-administered Compound (1) 30 mg once-daily with food for 5 days. Breast milk was collected from Day −3 through Day 12. Blood samples for PK and plasma protein binding analysis were collected predose (Day 1), on Days 5-6, and during follow-up (Days 7, 9, and 12). The relationship between plasma and breast milk concentrations was examined with population PK modeling.
# [3] = tested on: plasma protein; test: Plasma protein binding analysis of blood samples from healthy lactating participants; assay type: in vitro ADME; conditions: female, human, across participants, 30 mg once-daily oral with food for 5 days, read-out: free fraction in plasma (plasma protein binding)
# Text: (§2) Compound (1) is an investigational, synthetic, oral neuroactive steroid under investigation as a once-daily therapy for major depressive disorder and postpartum depression. This open-label study evaluated the extent of Compound (1) transfer into breast milk, breast milk production (volume), pharmacokinetics (PK), plasma protein binding, safety, and tolerability in healthy lactating participants.
# as §1
# [4] = Open-label study: transfer of Compound (1) into breast milk of healthy lactating women; assay type: in vivo, human
# Text: as §2, §1
# [5] = Safety and tolerability in healthy lactating participants; assay type: in vivo, human
# Text: as §2, §1
# [6] = Breast milk production (volume) in healthy lactating participants; assay type: in vivo, human; conditions: 30 mg once-daily oral for 5 days; inter-participant variability noted
# Text: as §2, §1
smiles,measurement,setting,value
"C[C@@]1(O)CC[C@H]2[C@H](CC[C@@H]3[C@@H]2CC[C@]2(C)[C@@H](C(=O)Cn4cc(C#N)cn4)CC[C@@H]32)C1 [Compound (1), 1-(2-((3R,5R,8R,9R,10S,13S,14S,17S)-3-hydroxy-3,13-dimethylhexadecahydro-1H-cyclopenta[a]phenanthren-17-yl)-2-oxoethyl)-1H-pyrazole-4-carbonitrile]",action on GABAA receptors,[1],positive allosteric modulator
same,Kp,"[2]; female, human, breast milk/plasma, oral, 30 mg, constant, population PK modeling, read-out: partition coefficient between milk and plasma",0.501
same,relationship of plasma concentrations with time or collected milk volume,[2]; in vivo,no apparent relationship
same,between-subject variability in milk/plasma partitioning,[2]; population PK modeling,23%
same,fraction unbound,[3],≤ 0.0052
same,breast milk concentration relative to plasma concentration,[4]; 30 mg once-daily for 5 days,approximately one-half
same,daily infant dose,"[4]; Day 5, 30 mg once-daily oral for 5 days",0.00125 mg/kg/day
same,estimated mean relative infant dose (RID),"[4]; Day 5, 30 mg once-daily oral for 5 days, compared to maternal dose",0.357%
same,tolerability,"[5]; 30 mg for 5 days, healthy lactating participants",well-tolerated
same,adverse events reported,"[5]; 30 mg once-daily oral for 5 days, N=15","No deaths, serious adverse events, moderate or severe treatment-emergent adverse events (TEAEs), or TEAEs leading to discontinuation or study withdrawal were reported"
same,decrease of volume of milk collected from baseline,[6],8.3%
